Results taken from PMC10616469, “Pharmacokinetics and tissue distribution of four major bioactive components of Cynanchum auriculatum extract: a UPLC–MS/MS study in normal and functional dyspepsia rats” (Frontiers in Pharmacology, 2023).
Where two headings read alike, the source gives them in different places.

Assays:
[1] = Stability of the four compounds in plasma samples (QC samples); settings: n = 5
Description: In a 1.5 mL EP tube, 100 μL of plasma sample was mixed with 10 µL 1% formic acid–water, 10 μL IS (0.2011 μg/mL), and 400 μL acetonitrile. The mixture was then vortexed for 5 min, followed by sonication for 10 min at 40 kHz and centrifugation at 14,000 rpm for 10 min. The supernatant obtained was transferred to another tube and evaporated to dryness under a nitrogen vacuum at 37°C. The residue obtained was reconstituted with 150 μL of the initial mobile phase, and the centrifugation process was repeated. The supernatant thus obtained was then used for further analysis.
Similarly, QC samples of three concentrations (low, medium, and high) were prepared.
The specificity of the method was evaluated by comparing the retention times of analytes and IS in the blank matrix, blank matrix spiked with the four analytes and IS, and the samples after oral administration of CA extract. Calibration curves were constructed by comparing the ratio of peak areas of the four analytes to that of IS versus the concentration of the four analytes. Calibration curves were fitted via linear weighted (1/X ^ 2 ) least–squares regression. The intra–and inter–day precision and accuracy were estimated by analyzing QC samples at different concentrations on the same day and three consecutive validation days, respectively. The extraction recovery was evaluated by determining the peak area of analytes in QC samples compared with that in extracted matrix samples. The relative standard deviation of the extraction recovery of analytes at each level was retained at ≤20.0%. The following parameters of stability were assessed: short–term stability (24 h at room temperature), processed sample stability (24 h at 4°C), freeze–thaw stability (3 cycles), and auto–sampler stability (6 h at room temperature). QC samples of different concentrations were used for stability analysis.

[2] = PK study: plasma pharmacokinetics after oral administration of CA extract in normal and FD rats (UPLC-MS/MS); format: in vivo; settings: Sprague-Dawley, rat, oral CA extract (0.10 g/mL solution, 10 mL/kg); for AUC(0-inf) / AUC(0-t) / CL/F / Cmax / half-life: n = 6; for Tmax: n = 6, read-out: Tmax; for Vd/F: n = 6, read-out: Vz/F
Description: For PK experiments, an appropriate amount of the CA extract was weighed to prepare a 0.10 g/mL solution using physiological saline. Briefly, 12 SD rats were randomly assigned to normal and FD groups and were orally administered the prepared CA sample (10 mL/kg body weight). For assessment, 0.3 mL of blood was collected into heparinized tubes via the caudal vein before dosing and at 2, 5, 10, 15, 20, 30, and 45 min, and 1, 2, 4, 8, 12, 24, and 48 h after administration. Blood samples were then immediately centrifuged at 4,500 rpm for 15 min, and the obtained plasma samples were stored at −20°C until determination.
The PK parameters were analyzed using the non–compartment analysis using the WinNonLin 8.2 software (Phoenix, United States). All the data were expressed as mean ± standard deviation (SD). The normal and FD groups were compared using independent samples t–test in SPSS 22.0. Results with p values < 0.05 were considered statistically significant.

[3] = Tissue distribution study after oral administration of CA extract in normal and FD rats
Description: UPLC–MS/MS analysis was conducted using the ACQUITY UPLC system (Waters Corp., Milford, MA, United States) equipped with a Xevo–TQ mass spectrometer (Waters Corp., Milford, MA, United States) with an electrospray ionization (ESI) interface and triple quadrupole mass analyzer.
The ACQUITY UPLC® BEH C18 column (2.1 mm × 50 mm, 1.7 μm, Waters, United States) was used for separation and was maintained at 40°C. The mobile phase consisted of 0.1% formic acid in water (A) and 0.1% formic acid–acetonitrile (B) for PK study and 0.2% formic acid in water (A) and 0.2% formic acid–acetonitrile (B) for tissue distribution study. The mobile phase was eluted as a gradient, as follows: 0–0.5 min, 10% B; 0.5–3.0 min, 15% B; 3.0–3.2 min, 25% B; 3.2–4.0 min, 30% B; 4.0–4.5 min, 32% B; 4.5–6.0 min, 90% B; and 6.0 min, 10% B. The flow rate was set at 0.35 mL/min and the injection volume was 2 μL for the PK study and 1 μL for the tissue distribution study.
The four active components of CA were quantified using multiple reaction monitoring under negative ion mode. The following m/z transitions were chosen for quantification: baishouwu benzophenone 301.00→283.00, deacylmetaplexigenin 379.15→361.20, qingyangshengenin 499.20→137.00, syringic acid 197.20→181.95, and puerarin (internal standard, IS) 415.10→267.05. The collision energy was 15, 15, 35, 15, and 35 V, respectively ([Sun et al., 2022]). ESI mode was operated under the following conditions: capillary voltage, 1 kV; desolvation gas (N2), 1000 L/h; collision gas (Ar2), 150 L/h; desolvation temperature, 400°C; and source temperature, 120°C.
Additionally, stomach and small intestinal tissues were diluted three times to obtain a tissue homogenate. Then, 300 μL of this tissue homogenate was mixed with 30 μL 1% formic acid-water, 20 μL IS, and 1.2 mL acetonitrile. The mixture was then vortexed for 5 min, sonicated for 10 min, and then stored at −20°C for 30 min. Subsequently, the mixture was centrifuged at 14,000 rpm for 10 min. The supernatant obtained was then transferred to another tube and evaporated to dryness at 37°C under nitrogen. The dried residue was reconstituted with 200 μL of the 50% methanol–water, and the centrifugation process was repeated. The obtained supernatant was then used for further analysis.
SD rats were randomly divided into normal and FD groups (n = 30 each) and orally administered 10 mL/kg of CA extract solution. The rats were sacrificed at 10, 30 min, 1, 2, and 4 h after administration (6 rats per time point). Subsequently, their heart, liver, spleen, lung, kidney, brain, small intestine, and stomach were removed. The tissue samples were then washed in saline solution and wiped with filter paper. Subsequently, all tissues were stored at −80°C until analysis.

[4] = high QC (nominal 1666.00 / 3172.53 / 569.17 / 206.21 ng·mL^-1)
[5] = low QC (nominal 52.06 / 49.57 / 8.89 / 1.61 ng·mL^-1)
[6] = medium QC (nominal 208.25 / 396.57 / 71.13 / 25.78 ng·mL^-1)

- Measured concentration, 4°C for 24 h [1, 4]: 185.91 ± 1.51 ng/mL
- Measured concentration, Room temperature for 24 h [1, 4]: 196.89 ± 6.85 ng/mL
- Measured concentration, Three freeze-thaw cycles [1, 4]: 198.43 ± 6.85 ng/mL
- Measured concentration, 4°C for 24 h [1, 5]: 1.47 ± 0.10 ng/mL
- Measured concentration, Three freeze-thaw cycles [1, 5]: 1.42 ± 0.18 ng/mL
- Measured concentration, 4°C for 24 h [1, 6]: 22.75 ± 1.62 ng/mL
- Measured concentration, Room temperature for 24 h [1, 6]: 23.14 ± 1.80 ng/mL
- Measured concentration, Three freeze-thaw cycles [1, 6]: 23.32 ± 1.20 ng/mL
- AUC(0-inf) ([2]; FD group rats): 1170 ± 357 ng·h/mL
- AUC(0-t) ([2]; FD group rats): 498 ± 109 ng·h/mL
- CL/F ([2]; FD group rats): 1.83 mL/min/kg
- Cmax ([2]; FD group rats): 67.4 ± 3 ng/mL
- half-life ([2]; FD group rats): 37.7 ± 12.6 h
- Tmax ([2]; FD group rats): 0.25 ± 0.04 h
- Vd/F ([2]; FD group rats): 5.49 ± 0.69 L/kg
- AUC(0-inf) ([2]; Normal group rats): 1150 ± 153 ng·h/mL
- AUC(0-t) ([2]; Normal group rats): 523 ± 54.3 ng·h/mL
- CL/F ([2]; Normal group rats): 1.67 mL/min/kg
- Cmax ([2]; Normal group rats): 72.2 ± 6.74 ng/mL
- half-life ([2]; Normal group rats): 34.5 ± 6.73 h
- Tmax ([2]; Normal group rats): 0.24 ± 0.03 h
- Vd/F ([2]; Normal group rats): 5.07 ± 0.74 L/kg
- detection in the brain ([3]; rat brain): not detected
- time after dosing at which eliminated in all tissues ([3]; rat tissues): 1 h
- tissue with higher distribution ([3]; rats): stomach
Structure (SMILES): COc1cc(C(=O)O)cc(OC)c1O [Syringic acid]
